Results as given in EP0450100A1, “PHYSIOLOGICALLY ACTIVE PEPTIDE” (MEIJI SEIKA KAISHA LTD., priority 1989, dated 1991).
No end group written: not given here.

Test system: canine femoral artery
Experiment: Influence of the peptides on the blood flow passing through canine femoral artery (VIP bioassay method of Said and Mutt)
Assay type: in vivo
Conditions: anesthetized beagles; 200 p mol/kg injected into the femoral artery; 0.5 to 4 minutes after injection; conclusion from Table 1 and Table 2
Description: The above-mentioned influence was estimated according to the VIP bioassay method proposed by Said and Mutt [see "Nature" 225, 863-864 (1970)]. After three mature beagles having the body weight of 10 kg were fasted for 18 hours, they were anesthetized with thiamylal (10 mg/kg) and Nembutal ([…]). During the experiment, physiological saline was continuously injected (2 mℓ/min.) into a vein of each beagle and the body temperature of the beagle was maintained at 37-38°C by an electric heater. The femoral artery was surgically exposed, and a polyethylene tube filled with heparin-added physiological saline was inserted in and fixed to a muscle branch of the femoral artery so that the polyethylene tube could be used as an injection route for each peptide under test. A probe of an electro-magnetic blood flowmeter was attached to the femoral artery on a peripheral side of the muscle branch so that the average flow rate of blood through the artery was recorded as time-dependent variations on a polygraphy.
A solution of 10 µg of each tested polypeptide dissolved in 25 µℓ of 0.01 N HCl was diluted with physiological saline to prepare an injectable solution of the peptide. The injectable solution was injected into the artery by means of a peristaltic pump. Each peptide was injected at the dose of 200 p mol/kg. Tested peptides included the following compounds: Compound 1: Hd(1-33)-NH2 [the invention peptide of formula (Ic)] Compound 2: Hd(1-31)-NH₂ [the invention peptide of formula (Ia)] Compound 3: VIP(1-28)-Hd(29-35)-NH₂ [the invention peptide of formula (III)] Compound 4: VIP(1-11)-Hd(12-31)-NH₂ [the invention peptide of formula (II)]
Upon elapsed times of 0.5 minute, 1 minute, 2 minutes, 3 minutes and 4 minutes after the injection of each peptide under test,the blood flow rate was measured. Increases in the femoral arterial blood flow rate (mℓ/min.) as comapred with the basal level of blood flow rate were calculated. It may be added that the test results of Table 1 and those of Table 2 were obtained through tests which were conducted by the same method but at different times.

Row | Substance | activity of increasing the blood flow rate (femoral arterial blood flow rate) compared with helodermin | sustaining of the blood-flow-rate-increasing activity compared with helodermin
1 | HSDAIFTQQYSKLLAKLALQKYLASILGSRT-NH2 [Compound 2, Hd(1-31)-NH₂] | enhanced activity of increasing the blood flow rate over helodermin | effects of sustaining the blood-flow-rate-increasing activity in comparison with helodermin
2 | HSDAIFTQQYSKLLAKLALQKYLASILGSRTSP-NH2 [Compound 1, Hd(1-33)-NH₂] | enhanced activity of increasing the blood flow rate over helodermin | effects of sustaining the blood-flow-rate-increasing activity in comparison with helodermin
